From patent publication US20090088412A1, “COMPOSITION FOR TREATING CANCER CELLS AND PREPARATION METHOD THEREOF” (KAOHSIUNG MEDICAL UNIVERSITY, priority 2007, published 2009)
Converted amounts (≈) assume the structure as drawn.

What was measured:
Hep G2 = test: MTT cytotoxicity test, Hep G2; assay type: cell-based, human; conditions: 72 hours; for IC50 Hep G2: liver cancer cell line
Protocol: (§1) The bioactivities of the 25 new withanolide compounds of the present invention are further studied. The bioactivities are measured by examining cytotoxicity tests with 5 human cancer cell lines, including MCF-7 and MDA-MB-231 (which are the breast cancer cell lines), Hep G2 and Hep 3B (which are the liver cancer cell line), and A549 (which is lung cancer cell line). In addition, a normal human lung cell line (MRC-5) is served as the control group. All human cancer cell lines come from the American Type Culture Collection. The respective cell lines are cultured in RPMI-1640 medium with 10% (v/v) fetal calf serum, 100 U/ml penicillin and 100 µg/ml streptomycin, and incubated at 37° C. in 5% CO2 atmosphere.
(§2) In the present invention, the cytotoxicity tests are performed with MTT (3-(4,5-dimethyl-thiazol-2-yl)-2,5-diphenyl tetrazolium bromide) method. The five cancer cell lines and the normal cell line (MRC-5) are firstly incubated in a 96-well culture dish with concentrations of 5,000˜10,000 cells/well. In Day 2, the respective incubated cells are added with the withanolide compounds of the present invention and Doxorubicin and are incubated for additional 72 hours. Afterwards, the incubated cells are examined with the MTT method including steps of dissolving the incubated cells in DMSO, and determining the absorbance of each cell line to each compound by a microplate reader in 550 nm to evaluate the cytotoxicity of each compound to each cell line. […] The IC50 represents the concentration of the compound that is required for 50% inhibition of the cell growth, and Doxorubicin serves as the positive control group.

Hep 3B = test: MTT cytotoxicity test, Hep 3B; assay type: cell-based, human; conditions: liver cancer cell line, 72 hours
Protocol: as §1, §2

MCF-7 = test: MTT cytotoxicity test, MCF-7; assay type: cell-based, human; conditions: 72 hours; for IC50 MCF-7: breast cancer cell line
Protocol: as §1, §2

A-549 = test: MTT cytotoxicity test, A-549; assay type: cell-based, human; conditions: 72 hours; for IC50 A-549: lung cancer cell line
Protocol: as §1, §2

MDA-MB-231 = test: MTT cytotoxicity test, MDA-MB-231; assay type: cell-based, human; conditions: 72 hours; for IC50 MDA-MB-231: breast cancer cell line
Protocol: as §1, §2

MRC-5 = test: MTT cytotoxicity test, normal lung cell line MRC-5; assay type: cell-based; conditions: 72 hours; for IC50 MRC-5: normal human lung cell line
Protocol: as §1, §2

Molecule	IC50 Hep G2 (Hep G2)	IC50 Hep 3B (Hep 3B)	IC50 MCF-7 (MCF-7)	IC50 A-549 (A-549)	IC50 MDA-MB-231 (MDA-MB-231)	IC50 MRC-5 (MRC-5)	IC50 (Hep G2; Homo sapiens, HepG2, liver cancer cell line)	IC50 (Hep 3B; Homo sapiens, Hep3B)	IC50 (MCF-7; Homo sapiens, MCF7, breast cancer cell line)	IC50 (A-549; Homo sapiens, A549, lung cancer cell line)	IC50 (MDA-MB-231; Homo sapiens, MDA-MB-231, breast cancer cell line)	IC50 (MRC-5; MRC5, normal human lung cell line)
CC1=C(CO)C(=O)O[C@@H]([C@@H](C)[C@H]2CC[C@H]3[C@@H]4C[C@H]5O[C@]56[C@@H](O)C=CC(=O)[C@]6(C)[C@H]4CC[C@]23C)C1 [withaferin A, reference compound]	0.06 µg/mL (≈ 0.127 µM)	0.06 µg/mL (≈ 0.127 µM)	0.05 µg/mL (≈ 0.106 µM)	0.02 µg/mL (≈ 0.0425 µM)	0.02 µg/mL (≈ 0.0425 µM)	0.07 µg/mL (≈ 0.149 µM)						
COC1CC(=O)[C@]2(C)[C@H]3CC[C@@]4(C)[C@@H](CC[C@]4(O)[C@@](C)(O)[C@H]4CC(C)=C(C)C(=O)O4)[C@@H]3C[C@H]3O[C@]32[C@H]1O (stereo partly drawn) [Compound 17, 20-Hydroxytubocapsanolide G]	2.51 µg/mL (≈ 4.84 µM)	12.30 µg/mL (≈ 23.7 µM)	17.25 µg/mL (≈ 33.3 µM)	2.67 µg/mL (≈ 5.15 µM)	4.44 µg/mL (≈ 8.56 µM)	7.20 µg/mL (≈ 13.9 µM)						
COc1cccc2c1C(=O)c1c(O)c3c(c(O)c1C2=O)C[C@@](O)(C(=O)CO)C[C@@H]3O[C@H]1C[C@H](N)[C@H](O)[C@H](C)O1 [doxorubicin, reference compound]							0.46 µg/mL (≈ 0.846 µM)	0.45 µg/mL (≈ 0.828 µM)	0.34 µg/mL (≈ 0.626 µM)	0.42 µg/mL (≈ 0.773 µM)	0.19 µg/mL (≈ 0.35 µM)	0.77 µg/mL (≈ 1.42 µM)
CC1=C(C)[C@H](O)[C@H]([C@@H](C)[C@@]23O[C@@H]2C[C@H]2[C@@H]4C[C@H]5O[C@]56[C@@H](O)C=CC(=O)[C@]6(C)[C@H]4CC[C@@]23C)OC1=O [Compound 10, 23-Hydroxytubocapsanolide A]	0.44 µg/mL (≈ 0.908 µM)	0.49 µg/mL (≈ 1.01 µM)	2.05 µg/mL (≈ 4.23 µM)	0.79 µg/mL (≈ 1.63 µM)	1.19 µg/mL (≈ 2.46 µM)	0.90 µg/mL (≈ 1.86 µM)						
C[C@@]12CC([C@@]3(O)[C@H](O)C[C@H]4[C@@H]5C[C@H](Cl)[C@]6(O)[C@@H](O)C=CC(=O)[C@]6(C)[C@H]5CC[C@@]43C)[C@@H](C1)OC(=O)[C@]2(C)O (stereo partly drawn) [Compound 22, Anomanolide D]	>20 µg/mL	19.03 µg/mL (≈ 35.3 µM)	>20 µg/mL	>20 µg/mL	>20 µg/mL							
CC1=C(C)C(=O)O[C@@H]([C@@H](C)[C@@]2(C)C3=C(C[C@H]2O)[C@@H]2C[C@H]4O[C@]45[C@@H](O)C(O)CC(=O)[C@]5(C)[C@H]2CC3)C1 (stereo partly drawn) [Compound 3, Tubocapsenolide C]	15.93 µg/mL (≈ 32.7 µM)	>20 µg/mL	>20 µg/mL	7.06 µg/mL (≈ 14.5 µM)	>20 µg/mL							
COC1CC(=O)[C@]2(C)[C@H]3CC[C@]4(C)C([C@@](C)(O)[C@H]5CC(C)=C(C)C(=O)O5)=CC[C@H]4[C@@H]3C[C@H]3O[C@]32[C@H]1O (stereo partly drawn) [Compound 18, Tubocapsanolide H]	3.67 µg/mL (≈ 7.33 µM)	2.65 µg/mL (≈ 5.29 µM)	9.27 µg/mL (≈ 18.5 µM)	7.50 µg/mL (≈ 15 µM)	4.82 µg/mL (≈ 9.63 µM)	15.23 µg/mL (≈ 30.4 µM)						
C[C@]1(O)C[C@H]2OC(=O)[C@]1(C)C[C@H]2[C@@]1(O)[C@H](O)C[C@H]2[C@@H]3C[C@H](Cl)[C@]4(O)[C@@H](O)C=CC(=O)[C@]4(C)[C@H]3CC[C@@]21C [Compound 25, Tubonolide A]	5.09 µg/mL (≈ 9.44 µM)	6.54 µg/mL (≈ 12.1 µM)	12.03 µg/mL (≈ 22.3 µM)	5.91 µg/mL (≈ 11 µM)	>20 µg/mL							
CCCCOC1CC(=O)[C@]2(C)[C@H]3CCC4=C(C[C@@H](O)[C@@]4(C)[C@H](C)[C@H]4CC(C)=C(C)C(=O)O4)[C@@H]3C[C@H]3O[C@]32[C@H]1O (stereo partly drawn) [Compound 5, Tubocapsenolide E]	12.31 µg/mL (≈ 22.7 µM)	13.20 µg/mL (≈ 24.3 µM)	>20 µg/mL	15.94 µg/mL (≈ 29.4 µM)	17.50 µg/mL (≈ 32.2 µM)							
Tubocapsenolide D [Compound 4]	4.57 µg/mL	2.30 µg/mL	6.77 µg/mL	4.24 µg/mL	6.55 µg/mL	4.24 µg/mL						
CC1=C(C)C(=O)O[C@@H]([C@@H](C)[C@@]2(O)CC[C@H]3[C@@H]4C[C@H](O)[C@]5(O)[C@@H](O)C=CC(=O)[C@]5(C)[C@H]4CC[C@@]32C)C1 [Compound 13, Tubocapsanolide D]	>20 µg/mL	7.19 µg/mL (≈ 14.7 µM)	>20 µg/mL	8.01 µg/mL (≈ 16.4 µM)	13.49 µg/mL (≈ 27.6 µM)							
C[C@@]12CC([C@@]3(O)[C@H](O)C[C@H]4[C@@H]5C[C@H]6O[C@]67[C@@H](O)C=CC(=O)[C@]7(C)[C@H]5CC[C@@]43C)[C@@H](C1)OC(=O)[C@]2(C)O (stereo partly drawn) [Compound 21, Anomanolide C]	4.41 µg/mL (≈ 8.77 µM)	1.85 µg/mL (≈ 3.68 µM)	8.01 µg/mL (≈ 15.9 µM)	2.80 µg/mL (≈ 5.57 µM)	1.58 µg/mL (≈ 3.14 µM)							
COC1CC(=O)[C@]2(C)[C@H]3CC[C@]4(C)[C@@H]([C@@](C)(O)[C@H]5CC(C)=C(C)C(=O)O5)CC[C@H]4[C@@H]3C[C@H]3O[C@]32[C@H]1O (stereo partly drawn) [Compound 16, iso-Tubocapsanolide G]	5.99 µg/mL (≈ 11.9 µM)	7.63 µg/mL (≈ 15.2 µM)	>20 µg/mL	4.73 µg/mL (≈ 9.41 µM)	8.18 µg/mL (≈ 16.3 µM)							
COC1CC(=O)[C@]2(C)[C@H]3CC[C@@]4(C)[C@@H](CC[C@]4(O)[C@H](C)[C@H]4CC(C)=C(C)C(=O)O4)[C@@H]3C[C@H]3O[C@]32[C@H]1O (stereo partly drawn) [Compound 15, Tubocapsanolide G]	17.55 µg/mL (≈ 34.9 µM)	>20 µg/mL	>20 µg/mL	>20 µg/mL	>20 µg/mL							
C[C@@]12CC([C@@]3(O)[C@H](O)C[C@H]4[C@@H]5C[C@H](O)[C@]6(O)CC=CC(=O)[C@]6(C)[C@H]5CC[C@@]43C)[C@@H](C1)OC(=O)[C@]2(C)O (stereo partly drawn) [Compound 23, Anomanolide E]	>20 µg/mL	>20 µg/mL	>20 µg/mL	>20 µg/mL	>20 µg/mL							
CC1=C(C)C(=O)O[C@@H]([C@@H](C)[C@@]2(C)C3=C(C[C@H]2O)[C@@H]2C[C@H](O)[C@]4(O)[C@@H](O)C=CC(=O)[C@]4(C)[C@H]2CC3)C1 [Compound 6, Tubocapsenolide F]	>20 µg/mL	15.07 µg/mL (≈ 31 µM)	14.71 µg/mL (≈ 30.2 µM)	6.04 µg/mL (≈ 12.4 µM)	8.41 µg/mL (≈ 17.3 µM)							
CC1=C(C)C(=O)O[C@@H]([C@@H](C)[C@@]2(C)C3=C(C[C@H]2O)[C@@H]2C[C@H](Cl)[C@]4(O)[C@@H](O)C=CC(=O)[C@]4(C)[C@H]2CC3)C1 [Compound 7, Tubocapsenolide G]	19.12 µg/mL (≈ 37.9 µM)	>20 µg/mL	>20 µg/mL	19.94 µg/mL (≈ 39.5 µM)	>20 µg/mL							
C[C@@]12CC([C@@]3(O)[C@H](O)C[C@H]4[C@@H]5CC[C@]6(O)[C@@H](O)C=CC(=O)[C@]6(C)[C@H]5CC[C@@]43C)[C@@H](C1)OC(=O)[C@]2(C)O (stereo partly drawn) [Compound 24, Anomanolide F]	>20 µg/mL	>20 µg/mL	>20 µg/mL	>20 µg/mL	>20 µg/mL							
